From paper PMC10373102 (Molecular microbiology, 2011)

Target: T1, CtdQ; acylating aldehyde dehydrogenase (ADA) (Acidovorax sp. JS42, UniProt A1W2K2)
T1 sequence (A1W2K2 1-302): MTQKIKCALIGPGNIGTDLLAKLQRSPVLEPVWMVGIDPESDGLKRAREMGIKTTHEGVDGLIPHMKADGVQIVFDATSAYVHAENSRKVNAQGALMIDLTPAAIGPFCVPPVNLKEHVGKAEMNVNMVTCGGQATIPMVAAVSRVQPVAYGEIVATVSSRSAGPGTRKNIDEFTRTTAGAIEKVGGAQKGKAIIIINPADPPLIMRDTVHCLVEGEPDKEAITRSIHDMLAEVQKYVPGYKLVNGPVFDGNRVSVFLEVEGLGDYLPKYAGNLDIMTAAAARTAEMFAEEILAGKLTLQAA
Assay: enzyme assay in extract of E. coli expressing ctdQ
Assay type: biochemical
Conditions: details in SI

Row | Structure (SMILES) | enzyme assay in extract of E. coli expressing ctdQ
1 | CC=O [acetaldehyde] | the enzyme was equally active with acetaldehyde and propionaldehyde
2 | CCC=O [propionaldehyde] | the enzyme was equally active with acetaldehyde and propionaldehyde
